Measured values published in ChEMBL document CHEMBL5465560, “Selectivity Literature for EUbOPEN Chemogenomic Library” (2024).
Numbering of substitutions follows the chain as printed.

Legend:
Conditions in all cases: at 10 µM
[1] = biological target: Tyrosine-protein kinase Blk (Homo sapiens) (UniProt P51451)
[2] = tested on: T1, Receptor-type tyrosine-protein kinase FLT3 (Homo sapiens), P36888 [R834Q]; assay: (§1) Selectivity interaction (KinomeScan (DiscoverX)) EUB0000655a FLT3
T1 sequence (whole entry): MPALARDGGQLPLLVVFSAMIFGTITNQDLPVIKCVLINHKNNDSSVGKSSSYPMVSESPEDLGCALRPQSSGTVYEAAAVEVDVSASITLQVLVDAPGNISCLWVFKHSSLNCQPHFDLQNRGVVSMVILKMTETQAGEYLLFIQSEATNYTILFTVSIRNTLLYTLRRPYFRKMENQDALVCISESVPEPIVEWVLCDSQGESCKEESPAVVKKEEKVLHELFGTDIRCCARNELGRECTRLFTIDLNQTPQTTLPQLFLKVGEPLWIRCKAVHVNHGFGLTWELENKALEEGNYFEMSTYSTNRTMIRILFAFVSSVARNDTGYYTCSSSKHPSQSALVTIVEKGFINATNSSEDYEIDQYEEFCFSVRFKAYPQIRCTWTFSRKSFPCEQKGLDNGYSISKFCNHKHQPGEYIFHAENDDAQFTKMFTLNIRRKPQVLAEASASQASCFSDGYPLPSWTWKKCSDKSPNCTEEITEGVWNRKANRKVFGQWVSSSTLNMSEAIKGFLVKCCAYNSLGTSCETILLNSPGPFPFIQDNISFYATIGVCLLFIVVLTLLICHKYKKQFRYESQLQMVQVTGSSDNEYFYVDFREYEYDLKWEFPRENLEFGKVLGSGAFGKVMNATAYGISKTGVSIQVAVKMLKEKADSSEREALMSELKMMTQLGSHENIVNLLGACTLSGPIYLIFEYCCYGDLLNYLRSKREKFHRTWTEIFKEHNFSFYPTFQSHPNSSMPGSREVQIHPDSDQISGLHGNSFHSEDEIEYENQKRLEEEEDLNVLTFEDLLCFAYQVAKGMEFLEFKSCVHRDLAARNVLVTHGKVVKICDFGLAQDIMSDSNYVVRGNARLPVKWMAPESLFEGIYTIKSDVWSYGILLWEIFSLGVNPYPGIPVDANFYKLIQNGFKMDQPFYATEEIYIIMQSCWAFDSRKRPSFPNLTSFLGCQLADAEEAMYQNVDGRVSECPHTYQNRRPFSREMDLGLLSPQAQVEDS

[3] = tested on: T2, Receptor-type tyrosine-protein kinase FLT3 (Homo sapiens), P36888 [D835H]; assay: as §1
T2 sequence (whole entry): T1 sequence (whole entry) with Q834R, D835H

[4] = biological target: T3, Serine/threonine-protein kinase 17A (Homo sapiens) (UniProt Q9UEE5)
T3 sequence (whole entry): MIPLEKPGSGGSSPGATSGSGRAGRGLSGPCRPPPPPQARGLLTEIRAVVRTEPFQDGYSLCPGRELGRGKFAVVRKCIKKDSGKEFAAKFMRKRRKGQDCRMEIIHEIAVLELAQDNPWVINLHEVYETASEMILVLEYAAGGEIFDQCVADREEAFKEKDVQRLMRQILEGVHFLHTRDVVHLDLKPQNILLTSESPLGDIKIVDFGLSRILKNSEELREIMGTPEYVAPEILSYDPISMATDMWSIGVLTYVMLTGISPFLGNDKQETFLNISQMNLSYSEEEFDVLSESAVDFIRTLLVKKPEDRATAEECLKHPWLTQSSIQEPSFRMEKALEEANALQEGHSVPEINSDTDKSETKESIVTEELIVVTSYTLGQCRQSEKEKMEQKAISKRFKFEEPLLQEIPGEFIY

Tyrosine-protein kinase Blk (Homo sapiens), sequence (P51451 2-505 limits assumed): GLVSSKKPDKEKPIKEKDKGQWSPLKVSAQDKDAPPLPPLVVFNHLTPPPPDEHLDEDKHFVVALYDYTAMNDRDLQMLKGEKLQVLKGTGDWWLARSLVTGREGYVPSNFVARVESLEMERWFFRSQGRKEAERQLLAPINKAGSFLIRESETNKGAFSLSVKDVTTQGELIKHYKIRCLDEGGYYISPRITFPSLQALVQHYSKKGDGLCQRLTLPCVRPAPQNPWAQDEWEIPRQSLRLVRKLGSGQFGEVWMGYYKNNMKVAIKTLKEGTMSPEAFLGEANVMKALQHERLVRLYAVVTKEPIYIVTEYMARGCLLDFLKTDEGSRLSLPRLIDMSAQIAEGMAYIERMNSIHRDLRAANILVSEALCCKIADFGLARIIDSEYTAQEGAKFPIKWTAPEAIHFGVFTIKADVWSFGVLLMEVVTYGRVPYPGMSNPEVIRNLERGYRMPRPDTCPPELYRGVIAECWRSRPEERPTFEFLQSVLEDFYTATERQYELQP

**Q.** How did the % of control [1] turn out when `COCC(=O)NC/C=C/c1ccc2ncnc(Nc3ccc(Oc4ccc(C)nc4)c(C)c3)c2c1` [CP-724714] was run?
**A.** 62%

**Q.** `CN(C)CCOc1ccc(-c2nc(-c3ccncc3)c(-c3ccc4c(c3)CC/C4=N\O)[nH]2)cc1` was tested. Which % of control [2] did it give?
**A.** 100%

**Q.** What about the % of control [3] of the same compound?
**A.** 85%

**Q.** With `Cc1cc([C@@H](C)Nc2ccccc2C(=O)O)c2nc(N3CCOCC3)cc(=O)n2c1` [AZD-6482] as the compound, how does the % of control [4] read?
**A.** 98%
